# From PubChem BioAssay (NCI)
#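 In this assay, cells in 96-well plates receive the compound at five concentrations for 48 hours. Endpoints are linearly interpolated between the surrounding concentrations. Abbreviation: GI50, concentration required for 50% inhibition of growth. At the TGI there is no net growth.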
# Assays:
# Assay in all cases: inhibition of tumour cell growth, NCI panel, 48 h
# SNB-19 CNS = system: SNB-19 CNS
# HOP-62 NSCLC = system: HOP-62 NSCLC
# NCI-H23 lung = system: NCI-H23 lung
# ACHN renal = system: ACHN renal
# EKVX NSCLC = system: EKVX NSCLC
# SF-268 CNS = system: SF-268 CNS
# OVCAR-5 ovarian = system: OVCAR-5 ovarian
# PC-3 prostate = system: PC-3 prostate
# U251 CNS = system: U251 CNS
# HCT-15 colon = system: HCT-15 colon
# HCC-2998 colon = system: HCC-2998 colon
# A498 renal = system: A498 renal
# HOP-92 NSCLC = system: HOP-92 NSCLC
# T-47D breast = system: T-47D breast
# NCI/ADR-RES ovarian = system: NCI/ADR-RES ovarian
# DU-145 prostate = system: DU-145 prostate
# SK-MEL-2 melanoma = system: SK-MEL-2 melanoma
# SW-620 colon = system: SW-620 colon
# M14 melanoma = system: M14 melanoma
# SNB-75 CNS = system: SNB-75 CNS
# SN12C renal = system: SN12C renal
# HL-60(TB) leukemia = system: HL-60(TB) leukemia
# CCRF-CEM leukemia = system: CCRF-CEM leukemia
# SF-295 CNS = system: SF-295 CNS
# UACC-62 melanoma = system: UACC-62 melanoma
# BT-549 breast = system: BT-549 breast
# MOLT-4 leukemia = system: MOLT-4 leukemia
# NCI-H226 lung = system: NCI-H226 lung
# RXF 393 renal = system: RXF 393 renal
# LOX IMVI melanoma = system: LOX IMVI melanoma
# SK-MEL-5 melanoma = system: SK-MEL-5 melanoma
# MDA-MB-231 breast = system: MDA-MB-231 breast
# NCI-H522 lung = system: NCI-H522 lung
# MDA-MB-435 = system: MDA-MB-435
# OVCAR-4 ovarian = system: OVCAR-4 ovarian
# COLO 205 colon = system: COLO 205 colon
# RPMI-8226 leukemia = system: RPMI-8226 leukemia
# KM12 colon = system: KM12 colon
# OVCAR-8 ovarian = system: OVCAR-8 ovarian
# A549 NSCLC = system: A549 NSCLC
# MALME-3M melanoma = system: MALME-3M melanoma
# 786-0 renal = system: 786-0 renal
# HS 578T breast = system: HS 578T breast
# UO-31 renal = system: UO-31 renal
# SF-539 CNS = system: SF-539 CNS
# SK-OV-3 ovarian = system: SK-OV-3 ovarian
# SR leukemia = system: SR leukemia
# CAKI-1 renal = system: CAKI-1 renal
# OVCAR-3 ovarian = system: OVCAR-3 ovarian
# TK-10 renal = system: TK-10 renal
# K-562 leukemia = system: K-562 leukemia
# UACC-257 melanoma = system: UACC-257 melanoma
# SK-MEL-28 melanoma = system: SK-MEL-28 melanoma
# HCT-116 colon = system: HCT-116 colon
# IGROV1 ovarian = system: IGROV1 ovarian
# NCI-H460 lung = system: NCI-H460 lung
# HT29 colon = system: HT29 colon
smiles,measurement,setting,value
O=C1/C=C/[C@@H](O)[C@@H]2C[C@@H](O)C[C@H]2/C=C/CCC[C@H](CCc2ccc(NC(=S)Nc3ccc4c(c3)C(=O)OC43c4ccc(O)cc4Oc4cc(O)ccc43)cc2)O1,GI50,SNB-19 CNS,590 nM
same,TGI,SNB-19 CNS,> 100 µM
same,GI50,HOP-62 NSCLC,518 nM
same,TGI,HOP-62 NSCLC,> 100 µM
same,GI50,NCI-H23 lung,439 nM
same,TGI,NCI-H23 lung,> 74 µM
same,GI50,ACHN renal,803 nM
same,TGI,ACHN renal,> 100 µM
same,GI50,EKVX NSCLC,409 nM
same,TGI,EKVX NSCLC,> 100 µM
same,GI50,SF-268 CNS,405 nM
same,TGI,SF-268 CNS,> 100 µM
same,GI50,OVCAR-5 ovarian,698 nM
same,TGI,OVCAR-5 ovarian,> 100 µM
same,GI50,PC-3 prostate,516 nM
same,TGI,PC-3 prostate,> 100 µM
same,GI50,U251 CNS,470 nM
same,TGI,U251 CNS,> 100 µM
same,GI50,HCT-15 colon,889 nM
same,TGI,HCT-15 colon,> 100 µM
same,GI50,HCC-2998 colon,302 nM
same,GI50,A498 renal,141 nM
same,TGI,A498 renal,458 nM
same,GI50,HOP-92 NSCLC,932 nM
same,TGI,HOP-92 NSCLC,> 27.6 µM
same,GI50,T-47D breast,1390 nM
same,TGI,T-47D breast,76 µM
same,GI50,NCI/ADR-RES ovarian,407 nM
same,TGI,NCI/ADR-RES ovarian,> 100 µM
same,GI50,DU-145 prostate,2810 nM
same,TGI,DU-145 prostate,> 100 µM
same,GI50,SK-MEL-2 melanoma,456 nM
same,TGI,SK-MEL-2 melanoma,5.22 µM
same,GI50,SW-620 colon,337 nM
same,GI50,M14 melanoma,360 nM
same,TGI,M14 melanoma,> 49.2 µM
same,GI50,SNB-75 CNS,252 nM
same,TGI,SNB-75 CNS,> 100 µM
same,GI50,SN12C renal,2170 nM
same,TGI,SN12C renal,> 100 µM
same,GI50,HL-60(TB) leukemia,4.51 µM
same,TGI,HL-60(TB) leukemia,> 100 µM
same,GI50,CCRF-CEM leukemia,426 nM
same,TGI,CCRF-CEM leukemia,> 100 µM
same,GI50,SF-295 CNS,486 nM
same,TGI,SF-295 CNS,> 100 µM
same,GI50,UACC-62 melanoma,397 nM
same,TGI,UACC-62 melanoma,30.7 µM
same,GI50,BT-549 breast,451 nM
same,TGI,BT-549 breast,73.7 µM
same,GI50,MOLT-4 leukemia,432 nM
same,TGI,MOLT-4 leukemia,4.07 µM
same,GI50,NCI-H226 lung,287 nM
same,TGI,NCI-H226 lung,783 nM
same,GI50,RXF 393 renal,266 nM
same,TGI,RXF 393 renal,736 nM
same,GI50,LOX IMVI melanoma,244 nM
same,GI50,SK-MEL-5 melanoma,164 nM
same,TGI,SK-MEL-5 melanoma,311 nM
same,GI50,MDA-MB-231 breast,210 nM
same,TGI,MDA-MB-231 breast,402 nM
same,GI50,NCI-H522 lung,1600 nM
same,TGI,NCI-H522 lung,5.24 µM
same,GI50,MDA-MB-435,377 nM
same,TGI,MDA-MB-435,> 100 µM
same,GI50,OVCAR-4 ovarian,333 nM
same,GI50,COLO 205 colon,208 nM
same,TGI,COLO 205 colon,384 nM
same,GI50,RPMI-8226 leukemia,339 nM
same,TGI,RPMI-8226 leukemia,2390 nM
same,GI50,KM12 colon,322 nM
same,TGI,KM12 colon,971 nM
same,GI50,OVCAR-8 ovarian,401 nM
same,TGI,OVCAR-8 ovarian,> 100 µM
same,GI50,A549 NSCLC,448 nM
same,TGI,A549 NSCLC,> 100 µM
same,GI50,MALME-3M melanoma,2260 nM
same,TGI,MALME-3M melanoma,> 100 µM
same,GI50,786-0 renal,262 nM
same,TGI,786-0 renal,771 nM
same,GI50,HS 578T breast,305 nM
same,TGI,HS 578T breast,> 100 µM
same,GI50,UO-31 renal,335 nM
same,TGI,UO-31 renal,> 100 µM
same,GI50,SF-539 CNS,724 nM
same,TGI,SF-539 CNS,> 100 µM
same,GI50,SK-OV-3 ovarian,578 nM
same,TGI,SK-OV-3 ovarian,> 100 µM
same,GI50,SR leukemia,517 nM
same,TGI,SR leukemia,> 100 µM
same,GI50,CAKI-1 renal,1650 nM
same,TGI,CAKI-1 renal,> 100 µM
same,GI50,OVCAR-3 ovarian,317 nM
same,TGI,OVCAR-3 ovarian,862 nM
same,GI50,TK-10 renal,608 nM
same,TGI,TK-10 renal,12.6 µM
same,GI50,K-562 leukemia,1170 nM
same,TGI,K-562 leukemia,> 100 µM
same,GI50,UACC-257 melanoma,547 nM
same,TGI,UACC-257 melanoma,> 75.5 µM
same,GI50,SK-MEL-28 melanoma,263 nM
same,TGI,SK-MEL-28 melanoma,815 nM
same,GI50,HCT-116 colon,523 nM
same,TGI,HCT-116 colon,4.95 µM
same,GI50,IGROV1 ovarian,622 nM
same,TGI,IGROV1 ovarian,2690 nM
same,GI50,NCI-H460 lung,2620 nM
same,TGI,NCI-H460 lung,> 100 µM
same,GI50,HT29 colon,365 nM
same,TGI,HT29 colon,3.61 µM
